The values that follow come from patent publication US11369585B2, “Compositions, methods, systems and/or kits for preventing and/or treating neoplasms” (Research Cancer Institute of America, priority 2017, dated 2022).

For series [1], the system named is serous ovarian carcinoma lesions. Put plainly: Case study 2: whole body PET scan and abdominal CT scan restaging. The following applies: Niraparib 300 mg daily only.
Series [2] relates to glioma cells. As to conditions: cited from earlier work.
The conditions of series [3]: cited from earlier work.
In series [4] the test system is triple negative breast cancer. The following applies: cited from earlier work.
Series [5] relates to stage four pancreatic cancer. The series can be described thus: Case study 3: laboratory tests (VEGF, IL-8, TGF, CA 19.9). The series is classed as in vivo, human. As to conditions: two months without epigenetic therapies, Lynparza continued; increased from 8565. An excerpt:
(§1) This is a case study of a person with history of stage four pancreatic cancer who was diagnosed after abdominal pain, with adenocarcinoma of pancreas metastasized to their liver. They had explored all potential therapies and their oncologist had given them less than 3 months to live and had referred them to hospice.
They were immediately started on daily IV epigenetic therapies in combination with PARP inhibitors, which they received for two weeks after which their laboratory tests were repeated.
(§2) After two weeks of epigenetic therapies, his VEGF decreased from 248 to 70.
(§3) Thus, Lynparza alone was not sufficient to retard tumor growth. Upon their return to the clinic, their tumor marker CA 19.9 was analyzed.

Series [6] relates to cfDNA somatic alterations. Put plainly: Case study 3: Guardant360 % cfDNA with somatic alterations. Type of series: in vivo, human. The following applies: Lynparza alone.
Source text: Therefore, clinical correlation is advised.
as §2
For example, KRAS mutant allele frequency (MAF) decreased from over 50 percent to 5.6, TP53 decreased from over 50 percent down to 5.1 percent (FIG. 19).

The test system of series [7] is adenocarcinoma of pancreas metastasized to liver. The series can be described thus: Case study 3: clinical course. The series is classed as in vivo, human. The following applies: epigenetic therapies stopped, Lynparza continued.
Source text: as §1
They were able to walk again independently. They started to do clinically well. […] Edema in their lower extremities improved.
as §3

Setting [8] is: abdominal CT about one month after stopping epigenetic therapies, from 16 mm.

In the case of `NC(=O)c1cccc2cn(-c3ccc([C@@H]4CCCNC4)cc3)nc12` [Niraparib], in series [1] (setting [8]), the “abdominal mesenteric artery LN size” value was 28 mm and the retroperitoneal node size is 21 mm. For the same molecule, in series [1] (abdominal CT about one month after stopping epigenetic therapies, from 24 mm), the periaortic nodes size was found to be 32 mm. In series [1] (about one month after stopping epigenetic therapies), the “overall response on abdominal CT scan” value was “mixed response with progression”.
On to `O=c1c(O)c(-c2ccc(O)c(O)c2)oc2cc(O)cc(O)c12` [quercetin], for which, in series [2], the effect on angiogenesis entry is listed as “suppression of angiogenesis”. Moreover, the water solubility entry in series [3] was “not water soluble”.
`NC(=O)c1ccc(I)c([N+](=O)[O-])c1` [Iniparib]: the “phase II trial outcome” value in series [4] (in vivo) was “promising results”. The “survival in phase III trial” value in series [4] (patients also received cytotoxic chemotherapy) is listed as “no improvement in survival”.
As for `O=C(c1cc(Cc2n[nH]c(=O)c3ccccc23)ccc1F)N1CCN(C(=O)C2CC2)CC1` [Lynparza], in series [5], the “tumor marker CA 19.9” value is reported as 45988. The “cfDNA gene alterations (FGF2, C Myc, EGFR, PI3K, CDK4, CDK6, NF-1, KIT, TP53, PDGF, KRAS, BRCA1)” value in series [6] is given as “did not change”. The disease course result in series [7] was “their disease progressed”.
